# Experimental data: patent US20250179057A1, “MEK IMMUNE ONCOLOGY INHIBITORS AND THERAPEUTIC USES THEREOF” (Immuneering Corporation, priority 2022, published 2025)
# Several values for one entry are separate records, joined by “and”; a condition that tells them apart may be missing. Equal values may be shown once.
# Columns and labels:
# [1] = system: phospho-ERK in A549 (KRAS G12S) cells; assay: Cell-based pERK (pERK:tERK) in A549 cells; parameters: A549-pERK 10 uM, 2 h: unit not given here; conditions: for A549-pERK (10 nM, 2 h): phospho- to total protein ratio normalized to DMSO control (Table 9); for pERK:tERK (10 nM 2 h A549): Phospho-ERK Screen in A549 (KRAS G12S), head 10 nM 2 h, title 10 μM for 2 hours; for A549-pERK 10 uM, 2 h: phospho- to total protein ratio normalized to DMSO control
# Method: Media components, reagents and buffers for Western Blot: All cell culture media components were obtained from ThermoFisher Scientific. […] Laemmli sample loading 4× buffer (ThermoFisher Scientific, Cat No. NP0007). MOPS/SDS electrophoresis running buffer (GenScript, Cat No. M00138).
# Subculture conditions: Adherent cells were grown to approximately 90% confluency, culture medium was aspirated and the cell layer was rinsed with PBS. […] Eight mL media was added, cells were spun down at 1000×g for 5 minutes. Cell pellet was re-suspended in 10 mL media and an appropriate volume was inoculated into a new culture flask.
# Compound (drug) treatment: Cells were plated in a 6-well plate at a density of 250,000-300,000 cells/well in 3 mL media and incubated 37° C. in a humidified, 5% CO2 incubator. […] These solutions were added to the cells (3 uL/well), mixed by swirling the plate, and incubated at 37° C. in a humidified, 5% CO2 incubator for 2 hours.
# Cell lysis and protein estimation: Cells were washed with PBS, and scraped in 50 μL of lysis buffer containing protease and phosphatase inhibitors. Cell lysates were stored at −20° C. Cell lysates were thawed and spun at 12,000 rpm for one minute, 3 ul of the supernatant was added to 500 μL of Coomassie blue reagent following by 500 μL of water. […] Protein standards were used (0-20 mg/mL) to calculate protein concentrations of test samples.
# All samples were heated at 95° C. for 5 minutes, cooled to room temperature and spun down. […] After the run, gel was removed and protein transfer was done using iBlot for 7 minutes, as per manufacturer's recommendations. After the transfer, nitrocellulose membrane was incubated on a shaker in 5 mL of blocking buffer at room temperature for 1 hr. The blot was then incubated overnight on a shaker in 5 ml of blocking buffer containing 0.2% Tween-20 and primary antibody, at room temperature. Anti-phospho-STAT3 antibody was used at a dilution of 1:500, the other 3 primary antibodies were used at a dilution of 1:1000.
# Next day, the blot was washed 3 times for 10 min each with 10 mL of TBST followed by incubation on a shaker in 5 ml of blocking buffer containing 0.2% Tween-20 and 0.5 ul of the IRDye labeled secondary antibodies, diluted 1:10000, at room temperature for 1 hr. The blot was then washed 3 times for 10 min each with 10 mL of TBST and dried between sheets of paper towels. Imaging was done using LICOR's Odyssey imaging system, quantitation was done using their software, Image Studio version 3.1.
# (§1) Materials and Methods: A549 or A375 cells were seeded in 6-well plates at an appropriate seeding density on day 0. On day 2 or 3, after checking the health and confluency of cells, the media was aspirated and replaced with 1 mL media containing a predetermined concentration of compound and incubated for 2 hours. After 2 hours, the media was aspirated, and the cells washed 2 times with cold PBS. Cells were lysed on ice, with 50 uL 1×CST lysis buffer +1 mM PMSF for 5 minutes. After 5 minutes, cells were removed using a scraper and transferred to cold 1.5 mL tubes, and centrifuged for 10 min, 4° C., 14,000×g. Supernatant was gently removed and snap frozen in liquid nitrogen. Protein concentration of the lysate was determined using Bradford Reagent (analyzed using SpectraMax M2E) and diluted to 1 mg/mL or pERK or 1.5 mg/mL for pMEK analysis. […] All dilutions were in Milk-free antibody diluent.
# They were grown in T75 flasks in DMEM containing 10% FBS and Pen-Strep. at 37° C. in a humidified, 5% CO2 incubator. The adherent cells were grown to about 90% confluency, culture medium was aspirated, and the cell layer was rinsed with PBS. […] Eight mL media was added, cells were spun down at 1000 g for 5 minutes. Cell pellet was re-suspended in 10 mL media and an appropriate volume was inoculated into a new culture flask. Cells were plated in a 6-well plate at a density of 250,000-300,000 cells/well in 3 mL media and incubated 37° C. in a humidified, 5% CO2 incubator.
# [2] = system: phospho-MEK in A549 cells; assay: Cell-based pMEK (pMEK:tMEK, CRAF bypass) in A549 cells; conditions: 2 h, pMEK to total MEK normalized to DMSO control
# Method: as §1
# (§2) A549 or […] cells were treated in duplicate for two hours with compounds at varying concentrations. After two hours, the cells were lysed, snap frozen, and stored at −80° C. After storage, the lysate was quantified with the Bradford assay. Before the lysates were prepared to run on the Jess, the lysates were diluted to 1 mg/mL for pERK analysis and 1.5 mg/mL pMEK analysis using quantitative Western blotting. ERK and MEK phosphorylation levels were estimated by taking the ratio of phospho-protein to total protein and normalizing to the DMSO control.
# as §2
SMILES,"A549-pERK (10 nM, 2 h) [1]","A549-CRAF BP 100 nM, 2 h [2]",pERK:tERK (10 nM 2 h A549) [1],"A549-pERK 10 uM, 2 h [1]"
Cc1c(Cc2cccc(NS(=O)(=O)C3CC3)c2F)c(=O)oc2cc(OC(=O)N(C)C)ccc12 [Compound 113],24.7,"48.0 (mean, n = 2)",–,–
CNS(=O)(=O)Nc1cccc(Cc2c(CNCC(F)(F)F)c3ccc(OC(=O)N(C)C)cc3oc2=O)c1F [Compound 75],–,66.5,–,–
CNS(=O)(=O)Nc1cccc(Cc2c(CNc3cncs3)c3ccc(OC(=O)N(C)C)cc3oc2=O)c1F [Compound 91],74.6,84.2,–,–
CNS(=O)(=O)Nc1cccc(Cc2c(CN(C)c3ccccc3)c3ccc(OC(=O)N(C)C)cc3oc2=O)c1F [Compound 79],49.4,45.2 and 64.9,–,–
CCS(=O)(=O)Nc1cccc(Cc2c(CN3CCNCC3)c3cc(Cl)c(OC(=O)N(C)C)cc3oc2=O)c1F [Compound 147],21.7,46.4,28 (n = 2),–
CCN(CC)Cc1c(Cc2cccc(NS(=O)(=O)NC)c2F)c(=O)oc2cc(OC(=O)N(C)C)ccc12 [Compound 73],77.7,33.9,–,–
CNS(=O)(=O)Nc1cccc(Cc2c(CN(C)c3ccc(Cl)cc3)c3ccc(OC(=O)N(C)C)cc3oc2=O)c1F [Compound 97],56.5,"52.1 (mean, n = 2)",–,–
CCS(=O)(=O)Nc1cccc(Cc2c(C)c3ccc(OC(=O)N(C)C)cc3oc2=O)c1F [Compound 107],18.0,39.9,–,–
C#CCNC(=O)CNCc1c(Cc2cccc(NS(=O)(=O)NC)c2F)c(=O)oc2cc(OC(=O)N(C)C)ccc12 [Compound 218],113,–,–,9.46
C#CCN(C)Cc1c(Cc2cccc(NS(=O)(=O)NC)c2F)c(=O)oc2cc(OC(=O)N(C)C)ccc12 [Compound 76],62.1,–,–,–
CNS(=O)(=O)Nc1cccc(Cc2c(CN3CCN(S(C)(=O)=O)CC3)c3ccc(OC(=O)N(C)C)cc3oc2=O)c1F [Compound 68],68.9,–,–,–
CNS(=O)(=O)Nc1cccc(Cc2c(CNC(N)=O)c3ccc(OC(=O)N(C)C)cc3oc2=O)c1F [Compound 105],–,–,–,7.39
CNS(=O)(=O)Nc1cccc(Cc2c(CO)c3ccc(OC(=O)N(C)C)cc3oc2=O)c1F [Compound 180],75,–,–,–
CNS(=O)(=O)Nc1cccc(Cc2c(CN3CC(C#N)C3)c3ccc(OC(=O)N(C)C)cc3oc2=O)c1F [Compound 172],111,–,–,–
CNS(=O)(=O)Nc1cccc(Cc2c(CC(=O)Nc3ccon3)c3ccc(OC(=O)N(C)C)cc3oc2=O)c1F [Compound 201],119,–,–,–
CNS(=O)(=O)Nc1cccc(Cc2c(CN3CCN(C(=O)c4ccccc4)CC3)c3ccc(OC(=O)N(C)C)cc3oc2=O)c1F [Compound 65],100,–,–,–
CNS(=O)(=O)Nc1cccc(Cc2c(CC(=O)N3CCN(C)CC3)c3ccc(OC(=O)N(C)C)cc3oc2=O)c1F [Compound 195],113,–,–,–
CNS(=O)(=O)Nc1cccc(Cc2c(CN3CC(N)C3)c3ccc(OC(=O)N(C)C)cc3oc2=O)c1F [Compound 165],104,–,–,–

SMILES,"A549-pERK (10 nM, 2 h) [1]","A549-CRAF BP 100 nM, 2 h [2]",pERK:tERK (10 nM 2 h A549) [1],"A549-pERK 10 uM, 2 h [1]"
CNS(=O)(=O)Nc1cccc(Cc2c(CNCC3CC3)c3ccc(OC(=O)N(C)C)cc3oc2=O)c1F [Compound 26],94.2,–,–,–
CNS(=O)(=O)Nc1cccc(Cc2c(CNC(=O)c3nn[nH]n3)c3ccc(OC(=O)N(C)C)cc3oc2=O)c1F [Compound 213],100,–,–,70.14
CNS(=O)(=O)Nc1cccc(Cc2c(CNC(=O)C(C)C)c3ccc(OC(=O)N(C)C)cc3oc2=O)c1F [Compound 208],105,–,–,23.64
CNS(=O)(=O)Nc1cccc(Cc2c(CNCc3ccco3)c3ccc(OC(=O)N(C)C)cc3oc2=O)c1F [Compound 56],92.9,–,–,–
CNS(=O)(=O)Nc1cccc(Cc2c(CNC(=O)C(C)(C)O)c3ccc(OC(=O)N(C)C)cc3oc2=O)c1F [Compound 212],100,–,–,13.03
CNS(=O)(=O)Nc1cccc(Cc2c(CN3CCOCC3=O)c3ccc(OC(=O)N(C)C)cc3oc2=O)c1F [Compound 181],100,–,–,22.23
CNS(=O)(=O)Nc1cccc(Cc2c(CN3CCN(Cc4ccccc4)CC3)c3ccc(OC(=O)N(C)C)cc3oc2=O)c1F [Compound 16],91.6,–,–,–
CNS(=O)(=O)Nc1cccc(Cc2c(CNc3ccccc3)c3ccc(OC(=O)N(C)C)cc3oc2=O)c1F [Compound 30],54.3,–,–,–
CNS(=O)(=O)Nc1cccc(Cc2c(CN3CC4CC3CN4)c3ccc(OC(=O)N(C)C)cc3oc2=O)c1F (stereo not shown) [Compound 138],96.9,–,–,–
CNC1CN(Cc2c(Cc3cccc(NS(=O)(=O)NC)c3F)c(=O)oc3cc(OC(=O)N(C)C)ccc23)C1 [Compound 164],102,–,–,–
CNS(=O)(=O)Nc1cccc(Cc2c(CNc3ccn(C)n3)c3ccc(OC(=O)N(C)C)cc3oc2=O)c1F [Compound 89],83.7,–,–,–
CC(C)CS(=O)(=O)Nc1cccc(Cc2c(CN3CCNCC3)c3cc(Cl)c(OC(=O)N(C)C)cc3oc2=O)c1F [Compound 168],–,–,50 (n = 2) and 53 (n = 2),–
CCN1CCN(Cc2c(Cc3cccc(NS(=O)(=O)NC)c3F)c(=O)oc3cc(OC(=O)N(C)C)ccc23)CC1=O [Compound 69],101,–,–,–
CNS(=O)(=O)Nc1cccc(Cc2c(CC(=O)N3CC(OC)C3)c3ccc(OC(=O)N(C)C)cc3oc2=O)c1F [Compound 216],89.5,–,–,4.51
CNS(=O)(=O)Nc1cccc(Cc2c(CNc3ccc(OC)nc3)c3ccc(OC(=O)N(C)C)cc3oc2=O)c1F [Compound 193],90.7,–,–,–
CN(C)C(=O)Oc1ccc2c(CN3CCC3)c(Cc3ccnc(NS(=O)(=O)C4CC4)c3F)c(=O)oc2c1 [Compound 155],84.9,–,–,–
CNS(=O)(=O)Nc1cccc(Cc2c(CC(=O)N(C)C)c3ccc(OC(=O)N(C)C)cc3oc2=O)c1F [Compound 196],106,–,–,–
